# Assay results as given in patent US7812044B2, “Anticancer agents” (Takeda Pharmaceutical Company Limited, priority 2001, dated 2010).
# Assays:
# [1] = system: tyrosine phosphorylation of cellular proteins in LNCaP cells; experiment: Tyrosine phosphorylation of cellular proteins in LNCaP cells, Western blotting with anti-phospho-tyrosine antibody; type: cell-based; details: 24 h no serum, angiotensin II 1x10^-6 M or EGF 1 ng/ml, 5 minutes
# Experimental: It is already known that, when growth stimulation such as EGF is applied to cells, phosphorylation of cellular proteins is induced by activation of signal transduction pathway. Then, in order to make clear the effect of angiotensin II on prostate cancer, prostate cancer LNCaP cells were cultured for 24 hours with no serum stimulation, and then, the culture was stimulated with angiotensin II (1×10^−6 M) or EGF (1 ng/ml) which was already known to have growth promoting effect, and 5 minutes after, cells were collected. The whole cell lysate separated by SDS-PAGE, transferred onto a PVDF membrane, and then tyrosine phosphorylation of an cellular protein was observed by Western blotting method using an anti-phospho-tyrosine antibody (Upstate, 10 Old Barn Road Lake Placid, N.Y. 12946 U.S.A.) [FIG. 3]. […] That is, it is considered that stimulation with angiotensin II has the same or similar effect as that of stimulation with EGF on prostate cancer cells.
# STAT3 [2] = experiment: Activated STAT3 in LNCaP cells, Western blotting with anti-phospho-STAT3 (Tyr705) antibody; type: cell-based; details: 24 h no serum, angiotensin II 1x10^-6 M or EGF 1 ng/ml
# Experimental: In order to make clear the effect of angiotensin II on an cellular protein STAT3 which is one of signal transducing molecules of a growth factor and a cytokine and is said to be involved in cell growth, prostate cancer LNCaP cells were cultured for 24 hours with no serum stimulation, and then, stimulated with angiotensin II (1×10^−6 M) or EGF (1 ng/ml) already known to have growth promoting effect, and cells were collected at an appropriate time. The whole cell lysate was separated by SDS-PAGE, and then, transferred onto a PVDF membrane. Activated STAT3 and a total amount of STAT3 were confirmed by Western blotting method using an anti-phospho-STAT3 (Tyr705) antibody which recognizes only activated STAT3 (Cell Signaling Technology, 166B Cumming Center Beverly, Mass. 01915 U.S.A.: in FIG. 5, WB: PSTAT3), and a STAT3 antibody which recognizes all endogenous STAT3s (Cell Signaling Technology, 166B Cumming Center Beverly, Mass. 01915 U.S.A.: in FIG. 5, WB: STAT3) [FIG. 5]. […] That is, it has been apparent that STAT3 controlling cell growth is activated by stimulation with angiotensin II.
# MAP kinase = experiment: Activated MAP kinase in LNCaP cells, Western blotting with anti-phospho-MAP kinase antibody; type: cell-based; details: 24 h no serum, angiotensin II 1x10^-6 M or EGF 1 ng/ml
# Experimental: In order to make clear the effect of angiotensin II on MAP kinase which is one of cellular proteins controlling cell growth, prostate cancer LNCaP cells were cultured for 24 hours with no serum stimulation, and then, stimulated with angiotensin II (1×10^−6 M) or EGF (1 ng/ml) already known to have growth promoting effect, and cells were collected at an appropriate time. The whole cell lysate was separated by SDS-PAGE, and then, transferred onto a PVDF membrane, and a total amount of cellular activated MAP kinase and MAP kinase was measured by Western blotting method using an anti-phospho-MAP kinase antibody which recognizes only activated MAP kinase (Cell Signaling Technology, 166B Cumming Center Beverly, Mass. 01915 U.S.A.: in FIG. 4, WB: PMAPK), and a MAP kinase antibody which recognizes all endogenous MAP kinases (Cell Signaling Technology, 166B Cumming Center Beverly, Mass. 01915 U.S.A.: in FIG. 4, WB: MAPK) [FIG. 4]. […] That is, it has been apparent that MAP kinase controlling cell growth is activated by stimulation of angiotensin II.
# [3] = system: microvessels in DU145 tumor; experiment: Number of microvessels in DU145 tumor of nude mouse, anti-CD31 staining; type: in vivo, nude mouse (Balb/c); details: 5 mg/kg/day orally, 4 weeks, magnification 400; control 72.5±9.7, P<0.02
# Experimental: To a male 4 week old nude mouse (Balb/c), 5×10^6 DU145 cells were subcutaneously injected on a back. After 10 days, when tumor having a diameter of 5 mm was formed (0 week), Candesartan cilexetil (Compound C) was mixed into drinking water (each group: n=3) so that Compound C could be orally taken the an amount of 5 mg/kg/day. As a control group, a group (n=3) receiving no Compound C was bred at the same time. Initiation of the oral administration was regarded as week 0, each group was bred for 4 weeks, and thereafter, tumor was isolated, stained with an anti-CD31 antibody as described hereinafter, and the number of microvessels in tumor was examined. Under a microscope (magnification 400), four places rich in the number of microvessels were selected from a tumor solid tissue part, and the number was counted. The results are shown in [FIG. 7]. Average 72.5±9.7 vessels were recognized in one field in case of the control group, and average 37.5±3.3 vessels were recognized in one field in case of the Compound C-administered group and, thus, a significant difference was recognized between both groups (P<0.02).
# Vessels in a tumor-transplanted tissue of a nude mouse were immunologically stained using an anti-mouse CD31 antibody, and the number of vessels and vascularization state were studied. Procedures were as follows: […]
# DU145 cells = experiment: Tumor growth of subcutaneous DU145 tumor in nude mouse, compound in drinking water; type: in vivo, nude mouse (Balb/c)
# Experimental: To a male 4 week-old nude mouse (Balb/c), 5×10^6 DU145 cells were subcutaneously injected on a back. After 10 days, when tumor having a diameter of 5 mm was formed (week 0), Candesartan cilexetil (Compound C) was mixed into drinking water so that Compound C could be orally taken at a dosage of 5 mg/kg day or 2.5 mg/kg day (each group: n=5). As a control group, a group (n=5) receiving no Compound C was bred at the same time. Initiation of the oral administration was regarded as week 0, each group was bred for 4 weeks, and a diameter of tumor was measured every week.
# STAT3 [4] = experiment: Phosphorylation after EGF stimulation of LNCaP cells, each concentration of compound; type: cell-based; details: EGF 1 ng/ml, compound 10^-6 M, 5x10^-6 M, 10x10^-6 M
# MAPK [5] = experiment: Phosphorylation of MAPK in LNCaP cells stimulated with IL-6; type: cell-based; details: IL-6 25 ng/ml, compound 10^-6 M, 5x10^-6 M, 10x10^-6 M
# Experimental: (3) LNCaP cells (10^7 cells) were cultured in a serum-free culture medium (F-12+1 mg/ml BSA) for 24 hours, IL-6: 25 ng/ml and each concentration of Compound B (10^−6 M, 5×10^−6 M, 10×10^−6 M) were added, and phosphorylation of MAPK was investigated.
# MAPK [6] = experiment: Phosphorylation of MAPK in LNCaP cells stimulated with EGF; type: cell-based; details: EGF 1 ng/ml, compound 10^-6 M added 30 minutes before
# Experimental: (1) LNCaP cells (10^7 cells) were cultured in a serum-free culture medium (F-12+1 mg/ml BSA) for 24 hours, each concentration of EGF and Compound B (10^−6 M) were added, and phosphorylation of MAPK was investigated.
# [7] = system: LNCaP (androgen receptor positive cell line derived from metastasis of prostate cancer); experiment: Cell number of LNCaP prostate cancer cells 5 days after addition of EGF and compound; type: cell-based; details: serum free, 10^-6 M compound plus EGF
# Experimental: Prostate cancer cells, LNCaP (androgen receptor positive cell line derived from metastasis of prostate cancer) were seeded on a dish (1×10^5 cells/dish), and cultured for 24 hours under serum free conditions. Then, EGF and Compound B were added, and 5 days after, the number of cells was counted [FIG. 2].
# [8] = system: DU-145 (androgen receptor negative cell line derived from metastasis of prostate cancer); experiment: Cell number of DU-145 prostate cancer cells 5 days after addition of EGF and compound; type: cell-based; details: DU-145, serum free, 10^-6 M compound plus EGF
# Experimental: Prostate cancer cells, DU-145 (androgen receptor negative cell line derived from metastasis of prostate cancer) were seeded on a 6-well dish (1×10^5 cells/well), and cultured for 24 hours under serum free conditions. Then, EGF and 2-ethoxy-1-[[2′-(1H-tetrazol-5-yl)biphenyl-4-yl]methyl]benzimidazole-7-carboxylic acid (Compound B) were added, and 5 days after, the number of cells was counted with a hematocytometer [FIG. 1].
compound,measurement,setting,value
"angiotensin II: stimulant of LNCaP cells acting on the angiotensin II receptor AT1 (DRVYIHPF; Angiotensin-2; UniProt P01019 25-32, looked up)",tyrosine phosphorylation of cellular proteins,[1],tyrosine phosphorylation of the same protein by stimulation with angiotensin II was also observed
same,activated STAT3 (WB: PSTAT3),STAT3 [2],activated STAT3 was increased
same,activated MAP kinase (WB: PMAPK),MAP kinase,activated MAP kinase was increased
"CCOc1nc2cccc(C(=O)OC(C)OC(=O)OC3CCCCC3)c2n1Cc1ccc(-c2ccccc2-c2nnn[nH]2)cc1 (centres unmarked) [Compound C, 1-(cyclohexyloxycarbonyloxy)ethyl 2-ethoxy-1-[[2′-(1H-tetrazol-5-yl)biphenyl-4-yl]methyl]benzimidazole-7-carboxylate]","number of microvessels in tumor, average vessels in one field",[3],37.5±3.3 vessels
same,growth inhibition as compared with the control group,"DU145 cells; 5 mg/kg/day orally, in and after week 2",significant difference of P<0.01
same,tumor growth (diameter of tumor),"DU145 cells; 5 or 2.5 mg/kg/day orally in drinking water, from week 2, 4 weeks",inhibition of tumor growth was observed
EGF: growth factor already known to have growth promoting effect,tyrosine phosphorylation of cellular proteins,[1],tyrosine phosphorylation was induced
same,activated STAT3 (WB: PSTAT3),STAT3 [2],activated STAT3 was increased
same,activated MAP kinase (WB: PMAPK),MAP kinase,activated MAP kinase was increased
"CCOc1nc2cccc(C(=O)O)c2n1Cc1ccc(-c2ccccc2-c2nnn[nH]2)cc1 [Compound B, 2-ethoxy-1-[[2′-(1H-tetrazol-5-yl)biphenyl-4-yl]methyl]benzimidazole-7-carboxylic acid]",phosphorylation of STAT3 by EGF stimulation,STAT3 [4],inhibited in a Compound B dose dependant manner
same,phosphorylation of MAPK by IL-6,MAPK [5],inhibited in a Compound B dose dependent manner
same,phosphorylation of MAPK by EGF stimulation,MAPK [6],phosphorylation was inhibited
same,reduction of the number of cells as compared with stimulation with EGF alone,[7],about 22%
same,reduction of the number of cells as compared with stimulation with EGF alone,[8],about 12%
